# According to ChEMBL document CHEMBL3137667, “[Drug-induced liver injury; fourteenth updated edition of the bibliographic database of liver injuries and related drugs]” (Gastroenterol Clin Biol, 2004):
# *1 amine or outer side, *2 acyl side, *3 side chain or, on linkers, in order; H or OH if unused. Where a SMILES comes first, the peptide text is derived from it. Bridges are numbered along the chain shown (N, C = ends). [ ]: non-standard residue; d: D form. The star is where a group is joined. ξ: configuration not given here. X2 = N=C1NCCC([C@H](N[*:1])C(=O)[*:2])N1; ΔAla(Z-3-ureido) = NC(=O)N/C=C(\N)C(=O)O; ξβ3hOrn = NCCCC(N)CC(=O)*; Dap = NC[C@H](N)C(=O)O
# Key:
# [1] = Highest frequency of moderate liver toxicity observed during clinical trials, expressed as a percentage. [column '% BIOL' in source]; conditions: human
# [2] = human
# [3] = human; remark: listed apart in the source
# [4] = human; remark: listed apart in the source
# [5] = human; remark: listed apart in the source
# [6] = human, serum, 4383 h
# [7] = human; remark: listed apart in the source
# [8] = Highest frequency of acute liver toxicity observed during clinical trials, expressed as a percentage. [column '% AIGUE' in source]; conditions: human
# [9] = human; remark: listed apart in the source
# [10] = human, serum
# [11] = human; remark: listed apart in the source
# [12] = human; remark: listed apart in the source
# [13] = human; remark: listed apart in the source
# [14] = human, serum; remark: listed apart in the source
# 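For Hepatotoxicity (association with vascular disease) in this document: count of indexed literature references reporting vascular liver injury in humans, e.g. peliosis hepatitis, hepatic veno-occlusive disease or Budd-Chiari syndrome.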
# 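For Hepatotoxicity (benign tumour) in this document: value is a count of indexed literature references citing a benign tumour confirmed by histopathology.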
# 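For Hepatotoxicity (choleostasis) in this document: human cholestatic liver injury, shown by histopathology or by peak ALT or AST elevation over alkaline phosphatase ratio below 2, value counts indexed literature reports.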
# 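For Hepatotoxicity (chronic liver disease) in this document: chronic liver injury confirmed by histopathology or persistently raised serum aminotransferase activity beyond 6 months, value given as the count of indexed literature references.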
# 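For Hepatotoxicity (cirrhosis) in this document: value is a count of indexed literature references reporting cirrhosis confirmed by histopathology.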
# 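For Hepatotoxicity (cytolytic) in this document: human cytolytic liver injury, shown by histopathology or by a ratio above 5 of peak ALT or AST elevation to alkaline phosphatase elevation, value counts indexed references.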
# 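For Hepatotoxicity (granulomatous hepatitis) in this document: value is a count of indexed literature references reporting granulomatous liver disease confirmed by histopathology.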
# 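For Hepatotoxicity (malignant tumour) in this document: malignant tumour confirmed by histopathology, value gives the count of indexed literature references reporting it.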
# 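For Hepatotoxicity (severe hepatitis) in this document: human clinical data: severe hepatitis, meaning potentially life-threatening liver failure or clinically observed cases, the value counts how many indexed literature references report it.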
# 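For Hepatotoxicity (steatosis) in this document: steatosis confirmed by histopathology, value is the count of indexed references.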
SMILES,Hepatotoxicity (moderate) [1],Hepatotoxicity (severe hepatitis) [2],Hepatotoxicity (benign tumour) [3],Hepatotoxicity (cytolytic) [4],Hepatotoxicity (steatosis) [5],Hepatotoxicity (chronic liver disease) [6],Hepatotoxicity (malignant tumour) [7],Hepatotoxicity (acute) [8],Hepatotoxicity (choleostasis) [9],Hepatotoxicity (moderate) [10],Hepatotoxicity (association with vascular disease) [11],Hepatotoxicity (cirrhosis) [12],Hepatotoxicity (granulomatous hepatitis) [13],Hepatotoxicity (acute) [14]
C[C@@H]1NC(=O)[C@@H](N)CNC(=O)[C@H](C2CCNC(=N)N2)NC(=O)/C(=C/NC(N)=O)NC(=O)[C@H](CNC(=O)CC(N)CCCN)NC1=O.N=C1NCCC([C@@H]2NC(=O)/C(=C/NC(N)=O)NC(=O)[C@H](CNC(=O)CC(N)CCCN)NC(=O)[C@H](CO)NC(=O)[C@@H](N)CNC2=O)N1 (stereo partly drawn) [CAPREOMYCIN] (H-[Dap]S[Dap](ξβ3hOrn)[ΔAla(Z-3-ureido)][X2]; lactam 1-C),0%,0,0,0,0,0,0,0%,0,3,0,0,0,0
CN(C)CCN(Cc1ccccc1)c1ccccn1 [TRIPELENNAMINE],0%,0,0,1,0,0,0,0%,1,0,0,0,0,1
CC(=O)[C@@]1(O)CC[C@H]2[C@@H]3CCC4=CC(=O)CC[C@]4(C)[C@H]3CC[C@@]21C [HYDROXYPROGESTERONE],0%,0,0,0,0,0,0,0%,1,0,0,0,0,1
CO/N=C(\C(=O)N[C@@H]1C(=O)N2C(C(=O)[O-])=C(C[N+]34CCC(C(N)=O)(CC3)CC4)CS[C@H]12)c1nsc(N)n1 [CEFCLIDIN],40%,1,0,0,0,0,0,0%,0,49,0,0,0,0
CC1(C)S[C@@H]2[C@H](N3C(=O)[C@@H](c4ccccc4)NC3(C)C)C(=O)N2[C@H]1C(=O)O [HETACILLIN],0%,0,0,1,0,0,0,0%,0,0,0,0,0,1
CCOC(=O)OC(C)OC(=O)[C@@H]1N2C(=O)[C@@H](/N=C/N3CCCCCC3)[C@H]2SC1(C)C (stereo partly drawn) [BACMECILLINAM],1.8%,0,0,0,0,0,0,0%,0,3,0,0,0,0
CCCCCN(C)CCC(O)(P(=O)(O)O)P(=O)(O)O [IBANDRONIC ACID],0.6%,0,0,0,0,0,0,0%,0,1,0,0,0,0
